Counter-ions that a name gives are not always drawn. Like-named read-outs stand apart in the source and are kept apart here.
How the values were obtained:
[1] = background; cited from earlier work
dopamine receptor = details: literature; cited from earlier work
prolactin [2] = details: literature; cited from earlier work
Parkinsonism = details: literature; cited from earlier work
dopamine receptors = test: inhibition of high affinity binding of tritiated dopamine to dopamine receptors in membranes from striatal synaptosomes of bovine brain; details: for Ki: Table 3, tritiated dopamine, striatal synaptosomes of bovine brain
prolactin [3] = test: inhibition of serum prolactin in reserpine-pretreated male rats; assay type: in vivo, rat (Sprague-Dawley); details: for inhibition at 0.05 mg/kg: Rattus norvegicus, ip, read-out: Percent Inhibition of Serum Prolactin
Method: Adult male rats of the Sprague-Dawley strain weighing about 200 g. were housed in an air-conditioned room with controlled lighting (lights on 6 a.m.-8 p.m.) and fed lab chow and water ad libitum. Each rat received an intraperitoneal injection of 2.0 mg. of reserpine in aqueous suspension 18 hours before administration of the ergoline derivative. The purpose of the reserpine was to keep prolactin levels uniformly elevated. The compounds under test were dissolved in 10 percent ethanol at a concentration of 10 mcg/ml. and were injected intraperitoneally at a standard dose of 50 mcg/kg. Each compound was administered to a group of 10 rats, and a control group of 10 intact males received an equivalent amount of 10 percent ethanol. One hour after treatment all rats were killed by decapitation, and 150 μl aliquots of serum were assayed for prolactin. The results were evaluated statistically using Student's "t" test to calculate the level of significance, "p", of the changes in prolactin level.
The difference between the prolactin level of the treated rats and prolactin level of the control rats, divided by the prolactin level of the control rats gives the percent inhibition of prolactin secretion attributable to the compounds of this invention. In the table, column 1 gives the name of the compound; column 2, the prolactin level for each group of rats; column 3, the percent prolactin inhibition; and column 4, the level of significance. The data were collected from three separate experiments, each with its own control, and Table 2 sets forth the results obtained by experiment.

[4] = system: 6-hydroxydopamine-lesioned rats (dopamine agonist activity); test: rat turning test (turning behavior contralateral to lesion in 6-hydroxydopamine-lesioned rats); assay type: in vivo; details: for Average Number of Turns/rat: first 15 minutes after end of latency period
Method: In this test, nigro-neostriatal-lesioned rats are employed, which are prepared by the procedure of Ungerstedt and Arbuthnott, Brain Res, 24, 485 (1970). A compound having dopamine agonist activity causes the rats to turn in circles contralateral to the side of the lesion. After a latency period, which varies from compound to compound, the number of turns is counted over a 15-minute period.
The compounds were dissolved in water and the aqueous solution injected into the rat by the intraperitoneal route.

prolactin [5] = test: inhibition of serum prolactin in reserpine-pretreated male rats; assay type: in vivo, rat (Sprague-Dawley); details: from dose response curves
serotonin = serotonin agonist activity
[6] = Experiment 3, 50 mcg/kg i.p., 1 hour, control 42.3 ± 7.3, P <0.001
[7] = Experiment 1, 50 mcg/kg i.p., 1 hour, control 30.4 ± 3.4, P <0.001 or <0.01

Row | Compound | Ki (dopamine receptors) [nM] | inhibition at 0.05 mg/kg (prolactin [3]; 1 h) [%] | % of Rats Exhibiting Turning Behavior ([4]; IP dose 1 mg/kg, Table I) [%] | Duration of Effect ([4]; IP dose 1 mg/kg, Table I) [h] | Latency of Effect ([4]; IP dose 1 mg/kg, Table I) [min] | Average Number of Turns/rat ([4]; IP dose 1 mg/kg, Table I) [Turns/rat] | other results
1 | N[C@@H](Cc1ccc(O)c(O)c1)C(=O)O [1-dopa, 1-dihydroxyphenylalanine] | – | – | – | – | – | – | metabolism (in words) [1]: rapidly metabolized
2 | CC(C)C[C@H]1C(=O)N2CCC[C@H]2[C@]2(O)O[C@](NC(=O)[C@@H]3C=C4c5cccc6[nH]c(Br)c(c56)C[C@H]4N(C)C3)(C(C)C)C(=O)N12 [2-bromo-α-ergokryptine] | – | – | – | – | – | – | dopamine receptor stimulation (in words) (dopamine receptor): stimulate dopamine receptors; prolactin inhibitor activity (in words) (prolactin [2]): activity as prolactin inhibitors; treatment of Parkinsonism (in words) (Parkinsonism): useful in the treatment of Parkinsonism
3 | CCCN1C[C@H](CSC)C[C@@H]2c3cccc4[nH]c(Br)c(c34)C[C@H]21 [D-2-bromo-6-n-propyl-8β-methylmercaptomethylergoline] | 3 | 89 | 100 | 1 | 5 | 71 | Serum Prolactin Level (prolactin [3]; [6]): 4.6 ± 0.4 ng/mL
4 | CSC[C@@H]1C[C@@H]2c3cccc4[nH]c(Cl)c(c34)C[C@H]2N(C)C1 [D-2-chloro-6-methyl-8β-methylmercaptomethylergoline mesylate, reference compound] | 6 | – | – | – | – | – | –
5 | C=CCN1C[C@H](CSC)C[C@@H]2c3cccc4[nH]cc(c34)C[C@H]21 [D-6-allyl-8β-methylmercaptomethylergoline] | 5 | – | – | – | – | – | –
6 | CCN1C[C@H](CSC)C[C@@H]2c3cccc4[nH]cc(c34)C[C@H]21 [D-6-ethyl-8β-methylmercaptomethylergoline] | 3.5 | 91 | 100 | ≥ 2 | 9 | 112 | Serum Prolactin Level (prolactin [3]; [6]): 3.9 ± 0.4 ng/mL
7 | CN1CC(CC#N)C[C@@H]2c3cccc4[nH]cc(c34)C[C@H]21 (stereo partly drawn) [D-6-methyl-8-cyanomethylergoline] | – | – | – | – | – | – | prolactin inhibitor activity (in words) (prolactin [2]): activity as prolactin inhibitors
8 | COC[C@@H]1C[C@@H]2c3cccc4[nH]cc(c34)C[C@H]2N(C)C1 [D-6-methyl-8β-methoxymethylergoline mesylate, reference compound] | 75 | – | – | – | – | – | –
9 | CSC[C@@H]1C=C2c3cccc4[nH]cc(c34)C[C@H]2N(C)C1 [D-6-methyl-8β-methylmercaptomethyl-9-ergolene, reference compound] | 6 | – | – | – | – | – | –
10 | CSC[C@@H]1C[C@@H]2c3cccc4[nH]cc(c34)C[C@H]2N(C)C1 [D-6-methyl-8β-methylmercaptomethylergoline mesylate, reference compound] | 13 | 58 | 50 | – | 30 to 45 | 51 | Serum Prolactin Level (prolactin [3]; [7]): 12.8; Duration of Effect in Hours ([4]; IP dose 1 mg/kg, Table I): ~ 2 Hours
11 | CCCN1CC(CSC)=C[C@@H]2c3cccc4[nH]cc(c34)C[C@H]21 [D-6-n-propyl-8-methylmercaptomethyl-8-ergolene] | 2 | 91 | 100 | 1 | 4 | 118 | Serum Prolactin Level (prolactin [3]; [6]): 3.9 ± 0.2 ng/mL
12 | CCCN1C[C@H](COC)C[C@@H]2c3cccc4[nH]cc(c34)C[C@H]21 [D-6-n-propyl-8β-methoxymethylergoline methanesulfonate] | 10 | 96 | 100 | ≥ 2 | 6 | 111 | Serum Prolactin Level (prolactin [3]; Experiment 2, 50 mcg/kg i.p., 1 hour, control 55.2 ± 4.1, P <0.001): 2.4 ± 0.2 ng/mL
13 | CCCN1C[C@H](CSC)C=C2c3cccc4[nH]cc(c34)C[C@H]21 [D-6-n-propyl-8β-methylmercaptomethyl-9-ergolene] | 2 | 81 | 100 | ≥ 2 | 4 | 200 | Serum Prolactin Level (prolactin [3]; [6]): 8.1 ± 1.2
14 | CCCN1C[C@H](CSC)C[C@@H]2c3cccc4[nH]cc(c34)C[C@H]21 [D-6-n-propyl-8β-methylmercaptomethylergoline methanesulfonate] | 3 ± 1 | – | – | ≥ 24 | 5 to 7 | 105 | potency as a prolactin inhibitor relative to the corresponding D-6-methyl compound (prolactin [5]): about 100 times; Serum Prolactin Level (prolactin [3]; [7]): 1.6 ± 0.4 ng/mL; inhibition at 0.05 mg/kg (prolactin [3]; Experiment 1, 50 mcg/kg i.p., 1 hour, P <0.001 (n-propyl), <0.01 (methyl)): 95%; average turns per lesioned rat ([4]; 15-minute period after latency): 105 turns per lesioned rat; potency in the turning behavior test relative to the corresponding D-6-methyl derivative ([4]; from dose response curves, 6-hydroxydopamine-lesioned rats): about 30 times
15 | CCCN1C[C@H](CSC)C[C@@H]2c3cccc4[nH]cc(c34)C[C@H]21 [D-6-n-propyl-8β-methylmercaptomethylergoline] | – | – | – | – | – | – | serotonin activity (in words) (serotonin): serotonin agonists rather than serotonin antagonists; inhibition of high affinity binding of tritiated dopamine (in words) (dopamine receptors; bovine striatal synaptosome membranes): extremely potent inhibitors
16 | CCCN1C[C@H](C[S+](C)[O-])C[C@@H]2c3cccc4[nH]cc(c34)C[C@H]21 (stereo partly drawn) [D-6-n-propyl-8β-methylsulfinylmethylergoline] | – | 92 | 100 | 1 | 7 | 65 | Serum Prolactin Level (prolactin [3]; [6]): 3.3 ng/mL
17 | CC(C)[C@H]1C(=O)N2CCC[C@H]2[C@]2(O)O[C@](NC(=O)[C@@H]3C=C4c5cccc6[nH]cc(c56)C[C@H]4N(C)C3)(C(C)C)C(=O)N12 [Ergocornine] | – | – | – | – | – | – | dopamine receptor stimulation (in words) (dopamine receptor): direct dopamine receptor stimulants of long duration; prolactin inhibitor activity (in words) (prolactin [2]): activity as prolactin inhibitors
18 | CC(C)[C@H]1C(=O)N2CCC[C@H]2[C@]2(O)O[C@](NC(=O)[C@@H]3C[C@@H]4c5cccc6[nH]cc(c56)C[C@H]4N(C)C3)(C(C)C)C(=O)N12 [dihydroergocornine] | – | – | – | – | – | – | prolactin inhibitor activity (in words) (prolactin [2]): activity as prolactin inhibitors
19 | CN1C[C@H](CC#N)C[C@@H]2c3cccc4[nH]c(Cl)c(c34)C[C@H]21 [lergotrile] | – | – | – | – | – | – | treatment of Parkinsonism (in words) (Parkinsonism): useful in the treatment of Parkinsonism

From patent publication US4202979A, “6-Ethyl(or allyl)-8-methoxymethyl or methylmercaptomethylergolines and related compounds” (priority 1979, dated 1980)
